Experimental data: patent publication US11807627B2, “Morphic forms of complement factor D inhibitors” (priority 2018, dated 2023)

How the values were obtained:
Format in all cases: physicochemical
[1] = Differential scanning calorimetry (DSC)
Method: DSC was performed using a TA Instruments 2920 or Q2000 differential scanning calorimeter. Temperature calibration was performed using NIST-traceable indium metal. The sample was placed into an aluminum DSC pan, covered with a lid, and the weight was accurately recorded. A weighed aluminum pan configured as the sample pan was placed on the reference side of the cell. The method code on the thermogram is an abbreviation for the start and end temperature as well as the heating rate; e.g., -30-250-10 means “from −30° C. to 250° C., at 10° C./min”. The following table summarizes the abbreviations used in each image for pan configurations: […]

[2] = Solubility in selected media (FaSSIF, FeSSIF, FaSSGF, pH 4 citrate, pH 6.8 phosphate)
Method: Solubility within selected media (FaSSIF, FeSSIF, FaSSGF, pH 4 citrate and pH 6.8 phosphate) was measured to be <0.01 mg/mL.
The pH 4 citrate buffer was prepared by dissolving sodium citrate (987 mg) and citric acid (1.28 g) in 100 mL H2O. The pH was adjusted to 4. The pH 6.8 phosphate buffer was prepared by dissolving dibasic sodium phosphate dihydrate (873 mg) and monobasic sodium phosphate monohydrate (708 mg) in 100 mL H2O. The pH was adjusted to 6.8. The FaSSIF media was prepared with sodium hydroxide (108 mg), sodium chloride (1.55 g) and monobasic sodium phosphate dihydrate (1.12 g) in H2O (0.25 L) and the pH adjusted to 6.5. FaSSIF/FeSSIF/FaSSGF (0.56 g) was dissolved in the buffer and mixed until opalescent. The FeSSIF media was prepared by dissolving sodium hydroxide (1.01 g), sodium chloride (2.96 g) and glacial acetic acid (2.97 g) in H2O (0.25 L) and the pH adjusted to pH 5. FaSSIF/FeSSIF/FaSSGF (2.81 g) was dissolved in the buffer and thoroughly mixed. The FaSSGF media was prepared by dissolving FaSSIF/FeSSIF/FaSSGF (0.06 g) in a solution of sodium chloride (2.00 g) dissolved in H2O (1 L) and mixing thoroughly.

[3] = Polarized light microscopy (PLM); conditions: Table 27A
Method: The presence of crystallinity (birefringence) was determined using an Olympus BX50 microscope, equipped with cross-polarizing lenses and a Motic camera. Images were captured using Motic Images Plus 2.0. All images were recorded using the 20×objective, unless otherwise stated. All samples were prepared using silicone oil and covered with a cover slip before PLM analysis was completed.

[4] = Thermogravimetric/differential thermal analysis (TG/DTA)
Method: Approximately, 5 mg of material was weighed into an open aluminium pan and loaded into a simultaneous thermogravimetric/differential thermal analyzer (TG/DTA) and held at room temperature. The sample was then heated at a rate of 10° C./min from 20° C. to 400° C. during which time the change in sample weight occurred was recorded along with any differential thermal events (DTA). Nitrogen was used as the purge gas at a flow rate of 300 cm^3/min.

[5] = Hygroscopicity / dynamic vapour sorption (DVS)
Method: (§1) Approximately, 10-20 mg of sample were placed into a mesh vapour sorption balance pan and loaded into a DVS Intrinsic dynamic vapour sorption balance by Surface Measurement Systems. The sample was subjected to a ramping profile from 40-90% relative humidity (RH) at 10% increments, maintaining the sample at each step until a stable weight had been achieved (dm/dt 0.004%, minimum step length 30 minutes, maximum step length 500 minutes) at 25° C. After completion of the sorption cycle, the sample was dried using the same procedure to 0% RH and then a second sorption cycle back to 40% RH. Two cycles were performed. The weight change during the sorption/desorption cycles were plotted, allowing for the hygroscopic nature of the sample to be determined. XRPD analysis was then carried out on any solid retained.
as §1, with “Approximately, 10” for “Approximately, 10-20”, “sample was” for “sample were”, “a DVS-1” for “a DVS Intrinsic”

[6] = Variable temperature XRPD (VT-XRPD); conditions: Table 27A
Method: VT-XRPD analysis was carried out on a Philips X'Pert Pro Multipurpose diffractometer equipped with a temperature chamber. The samples were scanned between 4 and 35.99°2θ using Cu K radiation (α1λ=1.54060 Å; α2=1.54443 Å; β=1.39225 Å; α1: α2 ratio=0.5) running in Bragg-Brentano geometry (step size 0.008°2θ) using 40 kV/40 mA generator settings.

[7] = Storage stability of Compound 3 forms (80° C., 40° C./75% RH, 25° C./60% RH, ambient); conditions: 1 week
Method: No changes by XRPD or HPLC purity were observed when the material was stored at 40° C./75% RH, 80° C. or under ambient conditions.

[8] = Drying of isolated samples at 50° C. for approximately 24 hours
Method: Samples produced from thermal cycling, cooling and evaporation experiments were dried at 50° C. for approximately 24 hours to assess any de-solvation/dehydration. From temperature cycling experiments, 3 samples converted upon drying: • Acetonitrile sample converted from Form J to amorphous; • 40% Ethanol/60% Water (% v/v) converted from Form N to Form P; and • Methanol sample converted from Form O to amorphous.

## CC(=O)c1nn(CC(=O)N2[C@H](C(=O)Nc3nc(Br)ccc3C)C[C@@]3(C)C[C@@H]23)c2ccc(-c3cnc(C)nc3)cc12 [Form J]
[1]; SSCI report
  Thermal events from SSCI report: Exothermic base line shifts: ~134° C., apparent
  Thermal events from SSCI report: apparent melt onset: melt onset 83 °C
[1]; onset, Table 27A
  DSC: Melting: melting 202.9 °C
  DSC: Solvent loss: Solvent loss 138.5 °C
[1]; peak, Table 27A
  DSC: Melting (peak): (peak 213.3° C.)
  DSC: Solvent loss (peak): (peak 152.4° C.)
[2]; FaSSGF
  solubility: <10 µg/mL
[2]; FaSSIF
  solubility: <10 µg/mL
[2]; FeSSIF
  solubility: <10 µg/mL
[3]
  PLM: Birefringent rods
[4]; Table 22B
  Onset Temp: Solvent loss: loss 129.3, ° C.
  Onset Temp: melting transition: 200.0 °C
[4]; Table 27A
  TG/DTA: Melting: melting 206.7 °C
  TG/DTA: Solvent loss: Solvent loss 138.5° C.,
[4]; up to 150° C.
  Mass loss within the TG trace: 2.2 wt %
[5]; 25° C.
  DVS analysis: hygroscopic nature: hygroscopic
[5]; Table 27A
  DVS: hygroscopicity: Hygroscopic first
  XRPD post DVS: Form B
[5]; after DVS
  Post-DVS XRPD analysis: pattern D
[5]; first sorption cycle
  DVS uptake: 6.9 wt %
  DVS uptake as equivalents of water: 2.5 equiv. water
[5]; second sorption cycle
  DVS uptake: 5.2 wt %
  DVS uptake as equivalents of water: 1.8 equiv. water
[6]
  VT-XRPD: Form J de-solvated to Pattern G: Pattern G (120° C.)
[7]
  1 week stability: 40° C./75% RH HPLC (uncapped): 99.8% (by relative area)
  1 week stability: 80° C. HPLC (capped): 99.9% (by relative area)
  1 week stability: 80° C. XRPD (capped): Pattern D
  1 week stability: Ambient conditions HPLC (capped): 99.9% (by relative area)
[8]
  Form after drying (de-solvation/dehydration): amorphous
